Article PMC7604503, “Cyclic peptides can engage a single binding pocket through highly divergent modes” (Proceedings of the National Academy of Sciences of the …, 2020)
Where a SMILES comes first, the peptide text is derived from it. Bridges are numbered along the chain shown (N, C = ends).

Experiments:
BRD2-BD1 = molecular target: T1, BRD2-BD1 (Homo sapiens, UniProt P25440); experiment: SPR binding of peptides to immobilised biotinylated BET bromodomain
T1 construct: human BRD2 (BD1: 65-194; BD2: 347-455); Avi tag (biotinylated); made in house; host or cells: E. coli BL21(DE3)
Method: (§1) We next assessed the ability of each of the three lead peptides to bind BRD3-BD1. […] To assess selectivity for other BET BDs, we used SPR to determine the binding affinity of each peptide toward the remaining BDs from BRD2, BRD3, and BRD4 (Fig. 1B). […]
(§2) Peptides were synthesised as C-terminal amides using standard fluorenylmethyloxycarbonyl (Fmoc)-strategy solid-phase chemistry using a Syro I automated synthesiser (Biotage) and NovaPEG Rink Amide resin (Novabiochem). Couplings were performed with HBTU/HOBt (1:1) and 6 equivalents of each amino acid. Double couplings were performed for arginine residues.
(§3) Following the final amino acid coupling reaction, the Fmoc group was removed and resin incubated with N-(chloroacetoxy)succinimide (0.2 M in DMF, 1 h, RT). Resin was washed with DMF (5 times) and DCM (5 times) and dried in vacuo.
(§4) Linear peptides were cleaved from the resin by incubation (3 h, RT) with a trifluoroacetic acid (TFA) cleavage cocktail (TFA/2,2’-(ethylenedioxy)diethanethiol/triisopropyl silane/H2O (92.5:2.5:2.5:2.5)) before filtration, concentration in vacuo and precipitation with ice-cold diethyl ether. Crude peptides were washed with diethyl ether (5 times), dried and resuspended in DMSO. The pH was raised to >8 using triethylamine to allow cyclisation. Following incubation (1 h, RT), peptides were re-acidified with TFA for purification.
(§5) Crude peptides were purified by reverse-phase high-performance liquid chromatography using a Chromolith Prep column (Merck) on a Prominence LC-20AP system (Shimadzu) (Solvent A: 0.1% TFA in H2O, Solvent B: 0.1% TFA in acetonitrile) to >95% purity as determined by mass spectrometry (Fig. S17). Purified peptides were reconstituted in DMSO and concentrations determined from their absorbance at 280 nm in 5% DMSO using predicted extinction coefficients.
(§6) Surface plasmon resonance (SPR)
(§7) Measurements were conducted on a T200 or S200 (GE Healthcare) and data analysed using the Biacore Insight Evaluation Software. Experiments were performed at 4 °C in single cycle kinetics mode. Biotinylated BET bromodomains were immobilised on a CAP chip (GE Healthcare) with a […]
(§8) pH 7.5 was used as the running buffer. […]

BRD4-BD1 = molecular target: T2, BRD4-BD1 (Homo sapiens, UniProt O60885); experiment: as above
T2 construct: BRD4 (BD1: 42-168; BD2: 348-464); Avi tag (biotinylated); made in house; host or cells: E. coli Rosetta2(DE3)
Method: as §1, §2, §3, §4, §5, §6, §7, §8

BRD3-BD2 = molecular target: T3, BRD3-BD2 (Homo sapiens, UniProt Q15059); experiment: as above
T3 construct: Avi tag (biotinylated); made in house; host or cells: E. coli BL21(DE3)
Method: as §1, §2, §3, §4, §5, §6, §7, §8

BRD4-BD2 = molecular target: T4, BRD4-BD2 (Homo sapiens, UniProt O60885); experiment: as above
T4 construct: BRD4 (BD1: 42-168; BD2: 348-464); Avi tag (biotinylated); made in house; host or cells: E. coli BL21(DE3)
Method: as §1, §2, §3, §4, §5, §6, §7, §8

BRD3-BD1 = molecular target: T5, BRD3-BD1 (Homo sapiens, UniProt Q15059); experiment: as above; conditions: for Kd: gray boxed value: no reproducible signals observed at the concentrations used
T5 construct: BRD3 (BD1: 25-147); Avi tag (biotinylated); made in house; host or cells: E. coli BL21(DE3)
Excerpt: as §1, §5, §6, §7, §8

BRD2-BD2 = molecular target: T6, BRD2-BD2 (Homo sapiens, UniProt P25440); experiment: as above
T6 construct: human BRD2 (BD1: 65-194; BD2: 347-455); Avi tag (biotinylated); made in house; host or cells: E. coli BL21(DE3)
Excerpt: as §1, §5, §6, §7, §8

[1] = tested on: BD1 domains (BRD2-BD1, BRD3-BD1, BRD4-BD1); experiment: SPR binding, stated for the BD1 domains together; design: species or system human; conditions: for reduction of affinity relative to 3.1B: all three BD1 domains
Method: as §1, §2, §3, §4, §5, §6, §7, §8

[2] = tested on: BD2 domains (BRD2-BD2, BRD3-BD2, BRD4-BD2); experiment: SPR binding, stated for the BD2 domains together; design: species or system human
Method: Measurements were conducted on a T200 or S200 (GE Healthcare) and data analysed using the Biacore Insight Evaluation Software. Experiments were performed at 4 C in single cycle kinetics mode. Biotinylated BET bromodomains were immobilised on a CAP chip (GE Healthcare) with a
pH 7.5 was used as the running buffer. Between cycles the chip was regenerated following the

[3] = gray boxed value: no reproducible signals observed at the concentrations used
[4] = 4 C, geometric mean and SD of two to five measurements

T5 sequence (Q15059 25-147): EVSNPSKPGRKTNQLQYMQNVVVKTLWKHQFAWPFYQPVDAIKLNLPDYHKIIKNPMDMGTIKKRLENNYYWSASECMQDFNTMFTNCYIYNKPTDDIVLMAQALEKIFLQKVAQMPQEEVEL
T3 sequence (Q15059 307-419): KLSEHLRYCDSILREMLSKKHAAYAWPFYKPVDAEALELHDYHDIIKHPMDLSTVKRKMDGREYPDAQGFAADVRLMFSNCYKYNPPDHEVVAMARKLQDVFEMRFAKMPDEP
T1 sequence (P25440 65-194): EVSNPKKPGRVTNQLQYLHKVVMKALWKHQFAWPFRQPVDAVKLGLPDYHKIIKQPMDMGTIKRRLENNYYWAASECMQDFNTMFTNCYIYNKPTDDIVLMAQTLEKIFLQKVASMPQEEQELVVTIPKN
T6 sequence (P25440 347-455): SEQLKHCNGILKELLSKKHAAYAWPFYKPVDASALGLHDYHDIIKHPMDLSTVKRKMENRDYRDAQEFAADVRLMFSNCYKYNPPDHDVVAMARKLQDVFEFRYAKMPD

**Q.** Which “interaction with BRD2-BD1 (in words)” value (BRD2-BD1) does the source give for `CC[C@H](C)[C@@H]1NC(=O)[C@H](Cc2c[nH]c3ccccc23)NC(=O)[C@H]([C@@H](C)CC)NC(=O)[C@H](CCCNC(=N)N)NC(=O)[C@H]([C@@H](C)O)NC(=O)[C@H](CC(C)C)NC(=O)[C@H](CCCCNC(C)=O)NC(=O)[C@H]([C@@H](C)O)NC(=O)[C@H](Cc2c[nH]c3ccccc23)NC(=O)[C@H](CCCNC(=N)N)NC(=O)[C@H](CC(C)C)NC(=O)[C@H](Cc2ccc(O)cc2)NC(=O)[C@H]([C@@H](C)O)NC(=O)[C@H](Cc2c[nH]c3ccccc23)NC(=O)CSC[C@@H](C(N)=O)NC(=O)[C@H](CO)NC1=O` [3.1A] ({CH2CO}-WTYLRWTK(Ac)LTRIWISC-NH2; thioether N-16) here?
**A.** no observable interaction

**Q.** `CC[C@H](C)[C@@H]1NC(=O)[C@H](C)NC(=O)[C@H](CCCCN)NC(=O)[C@H](CCCCNC(C)=O)NC(=O)[C@H](Cc2c[nH]c3ccccc23)NC(=O)CSC[C@@H](C(N)=O)NC(=O)[C@H]([C@@H](C)CC)NC(=O)[C@H](Cc2c[nH]cn2)NC(=O)[C@H](CC(C)C)NC(=O)[C@H]([C@@H](C)O)NC(=O)[C@H](CCCCN)NC(=O)[C@H](CC(C)C)NC(=O)[C@H]([C@@H](C)CC)NC(=O)[C@H](CCCCNC(C)=O)NC(=O)CNC(=O)[C@@H]2CCCN2C(=O)[C@H](CC(C)C)NC1=O` [3.2A] ({CH2CO}-WK(Ac)KAILPGK(Ac)ILKTLHIC-NH2; thioether N-17) was tested. Which Kd (BRD2-BD1; [3]) did it give?
**A.** > 10000 nM

**Q.** And the Kd (BRD4-BD1; [4])?
**A.** 8.9 ± 20 nM

**Q.** What about the “binding to BRD3-BD2 (in words)” value (BRD3-BD2) of the same compound?
**A.** strong binding was not observed

**Q.** What about the Kd (BRD3-BD2; [3]) of the same compound?
**A.** > 10000 nM

**Q.** And the Kd (BRD4-BD2; [3])?
**A.** > 10000 nM

**Q.** And the Kd (BRD3-BD1)?
**A.** > 10000 nM

**Q.** What about the Kd (BRD2-BD2; [3]) of the same compound?
**A.** > 10000 nM

**Q.** How did the “binding to BD1 domains (in words)” value [1] turn out when `CC[C@H](C)[C@@H]1NC(=O)[C@H](CCCCN)NC(=O)[C@H](CC(C)C)NC(=O)CNC(=O)[C@H](Cc2ccc(O)cc2)NC(=O)[C@H](CCCCNC(C)=O)NC(=O)[C@H](CCCCN)NC(=O)[C@H](Cc2c[nH]c3ccccc23)NC(=O)[C@H](CCC(N)=O)NC(=O)[C@H](CCCCNC(C)=O)NC(=O)[C@H](Cc2c[nH]c3ccccc23)NC(=O)CSC[C@@H](C(N)=O)NC1=O` [3.2C] ({CH2CO}-WK(Ac)QWKK(Ac)YGLKIC-NH2; thioether N-12) was run?
**A.** did not bind strongly

**Q.** And the “selectivity between BD2 and BD1 domains” value [2]?
**A.** 10- to 100 fold

**Q.** What about the Kd ([2]; read-out: affinities for the BD2 domains) of the same compound?
**A.** 10 to 100 nM

**Q.** Which results are given for `CC(=O)NCCCC[C@@H]1NC(=O)[C@H](Cc2c[nH]c3ccccc23)NC(=O)CSC[C@@H](C(=O)N[C@@H](Cc2c[nH]c3ccccc23)C(=O)N[C@@H](CC(C)C)C(=O)N[C@@H](CCCCNC(C)=O)C(=O)N[C@@H](CCCNC(=N)N)C(=O)N[C@@H](CCCCNC(C)=O)C(=O)N[C@@H](CC(C)C)C(=O)N[C@@H](CC(C)C)C(=O)N[C@@H](CC(C)C)C(=O)N[C@@H](CCCNC(=N)N)C(=O)N[C@@H](CS)C(N)=O)NC(=O)[C@H](Cc2c[nH]c3ccccc23)NC(=O)[C@H](CC(N)=O)NC1=O` [4.2A] ({CH2CO}-WK(Ac)NWCWLK(Ac)RK(Ac)LLLRC-NH2; thioether N-5 (inferred))?
**A.** binding to BRD4-BD2, fold tighter than to other BD2 domains (BRD4-BD2): 4- to 8 fold; binding to BRD3-BD1, fold tighter than to BRD4-BD2 (BRD3-BD1): 10 fold

**Q.** Which results are given for `CC[C@H](C)[C@@H]1NC(=O)[C@H](CO)NC(=O)[C@@H]2CCCN2C(=O)[C@H](CCCCNC(C)=O)NC(=O)[C@H](CCCNC(=N)N)NC(=O)[C@H](Cc2c[nH]c3ccccc23)NC(=O)[C@H](CCCCNC(C)=O)NC(=O)[C@H](CC(C)C)NC(=O)[C@H](CCCNC(=N)N)NC(=O)[C@H]([C@@H](C)CC)NC(=O)[C@H]([C@@H](C)O)NC(=O)[C@H](Cc2c[nH]cn2)NC(=O)[C@H](Cc2ccc(O)cc2)NC(=O)[C@H](C)NC(=O)[C@H](Cc2c[nH]c3ccccc23)NC(=O)CSC[C@@H](C(N)=O)NC(=O)[C@H](CO)NC1=O` [4.2B] ({CH2CO}-WAYHTIRLK(Ac)WRK(Ac)PSISC-NH2; thioether N-17)?
**A.** Kd (BRD2-BD1; [4]): 22 ± 0.028 nM; Kd (BRD4-BD1; [3]): > 10000 nM; Kd (BRD3-BD2; [4]): 16 ± 11 nM; Kd (BRD4-BD2; [4]): 1.1 ± 0.04 nM; selectivity for BD2 domains over BD1 domains (in words) [2]: significant selectivity; Kd (BRD3-BD1): > 10000 nM; Kd (BRD2-BD2; [4]): 2.7 ± 6 nM

**Q.** `CC[C@H](C)[C@@H]1NC(=O)[C@H]([C@@H](C)O)NC(=O)[C@H](CCCCN)NC(=O)[C@H](Cc2c[nH]c3ccccc23)NC(=O)CSC[C@@H](C(N)=O)NC(=O)[C@H](CCC(N)=O)NC(=O)[C@H](CCCCNC(C)=O)NC(=O)[C@H]([C@@H](C)O)NC(=O)[C@H](CCCNC(=N)N)NC(=O)[C@H](Cc2c[nH]c3ccccc23)NC(=O)[C@H]([C@@H](C)O)NC(=O)[C@H](CCCCNC(C)=O)NC(=O)CNC(=O)[C@H](C)NC1=O` [AcK5→Ala] ({CH2CO}-WKTIAGK(Ac)TWRTK(Ac)QC-NH2; thioether N-14) was tested. Which “reduction of affinity relative to 3.1B” value [1] did it give?
**A.** ~80 fold

**Q.** With `CC[C@H](C)[C@@H]1NC(=O)[C@H]([C@@H](C)O)NC(=O)[C@H](CCCCN)NC(=O)[C@H](Cc2c[nH]c3ccccc23)NC(=O)CSC[C@@H](C(N)=O)NC(=O)[C@H](CCC(N)=O)NC(=O)[C@H](CCCCNC(C)=O)NC(=O)[C@H]([C@@H](C)O)NC(=O)[C@H](CCCNC(=N)N)NC(=O)[C@H](Cc2c[nH]c3ccccc23)NC(=O)[C@H]([C@@H](C)O)NC(=O)[C@H](C)NC(=O)CNC(=O)[C@H](CCCCNC(C)=O)NC1=O` [AcK7→Ala] ({CH2CO}-WKTIK(Ac)GATWRTK(Ac)QC-NH2; thioether N-14) as the compound, how does the “reduction of affinity relative to 3.1B” value [1] read?
**A.** fourfold
